From ChEMBL document CHEMBL3727350, “Agents and methods for treating ischemic and other diseases” (2014)
The source made the active and inactive calls. The rule behind the calls is not given here.

Assays:
Y79 [1] = experiment: Inhibition of cell proliferation of human Y79 cells at 1 uM to 7.5 uM by MTT assay; assay type: functional, cell-based
[2] = target: Transient receptor potential cation channel subfamily M member 7 (Rattus norvegicus) (UniProt Q925B3); experiment: Inhibition of TRPM7 in rat H9C2 cells assessed as reduction in channel currents at 0.3 to 30 uM by whole cell patch clamp assay; assay type: cell-based
[3] = Inhibition of cell proliferation of mouse B16-F1 cells at 10 uM incubated for 48 to 96 hrs; assay type: functional
[4] = target: Transient receptor potential cation channel subfamily M member 7 (Mus musculus) (UniProt Q923J1); experiment: Inhibition of TRPM7 in mouse mouse primary cortical neurons exposed to 2 hrs oxygen glucose deprivation condition assessed as reduction in TRPM7-mediated anoxic cell death at 0.625 to 5 uM pre-incubated for 24 hrs before OGD measured after 20 hrs by propidium iodide uptake assay; assay type: cell-based; details: Cerebral cortex neuron
U2OS = experiment: Inhibition of cell proliferation of human U2OS cells at 10 uM incubated for 48 to 96 hrs; assay type: functional
[5] = Inhibition of cell proliferation of human HCT116 cells at 10 uM incubated for 48 to 96 hrs; assay type: functional; details: HCT-116
Y79 [6] = experiment: Inhibition of cell proliferation of human Y79 cells at 10 uM incubated for 48 to 96 hrs; assay type: functional
B16-F10 [7] = experiment: Inhibition of cell proliferation of mouse B16F10 cells at 1.25 to 10 uM incubated for 72 hrs by SRB assay; assay type: functional, cell-based
MDA-MB-231 [8] = experiment: Inhibition of cell proliferation of human MDA-MB-231 cells at 10 uM incubated for 48 to 96 hrs; assay type: functional
Y79 [9] = experiment: Inhibition of cell migration of human Y79 cells assessed as reduction in cell ability to migrate away from retina in cultured explants at 5 uM; assay type: functional, cell-based
RXF 393 = experiment: Antitumor activity against human RXF393 cells implanted in mouse assessed as inhibition of tumor growth at 20 mg/kg, iv qd; assay type: functional, organism-based
[10] = Inhibition of cell proliferation of mouse B16F10 cells at 10 uM incubated for 48 to 96 hrs; assay type: functional; details: B16-F10
[11] = target: Transient receptor potential cation channel subfamily M member 7 (Mus musculus) (UniProt Q923J1); experiment: Inhibition of Tet-induced Flag-tagged mouse TRPM7 expressed in HEK293 cells assessed as reduction in channel currents at 0.3 to 30 uM by whole cell patch clamp assay; assay type: cell-based
[12] = Inhibition of cell proliferation of human DMS456 cells at 10 uM incubated for 48 to 96 hrs; assay type: functional
HeLa [13] = experiment: Inhibition of cell proliferation of human HeLa cells at 1.25 to 10 uM incubated for 48 hrs by BrdU incorporation assay; assay type: functional, cell-based
WERI [14] = experiment: Inhibition of cell migration of human WERI cells assessed as reduction in cell ability to migrate away from retina in cultured explants at 1 uM; assay type: functional, cell-based
HeLa [15] = experiment: Inhibition of cell proliferation of human HeLa cells at 10 uM incubated for 48 to 96 hrs; assay type: functional
SW13 [16] = experiment: Inhibition of cell proliferation of human SW13 cells at 1.25 to 10 uM incubated for 48 hrs by BrdU incorporation assay; assay type: functional, cell-based
B16-F10 [17] = experiment: Antitumor activity against mouse B16F10 cells implanted in mouse assessed as inhibition of tumor growth at 20 mg/kg, iv qd; assay type: functional, organism-based
SW13 [18] = experiment: Inhibition of cell proliferation of human SW13 cells at 1.25 to 10 uM incubated for 72 hrs by SRB assay; assay type: functional, cell-based
[19] = target: Transient receptor potential cation channel subfamily M member 7 (Rattus norvegicus) (UniProt Q925B3); experiment: Inhibition of TRPM7 in rat H9C2 cells exposed to oxygen glucose deprivation condition for 1 to 6 hrs assessed as reduction in TRPM7-mediated anoxic cell death in presence of 1 uM nifedipine by propidium iodide uptake assay; assay type: cell-based
NCI-H292 = experiment: Inhibition of cell proliferation of human NCI-H292 cells at 10 uM incubated for 48 to 96 hrs; assay type: functional
[20] = target: Transient receptor potential cation channel subfamily M member 7 (Mus musculus) (UniProt Q923J1); experiment: Inhibition of TRPM7 in mouse mouse primary cortical neurons exposed to 2 hrs oxygen glucose deprivation condition assessed as reduction in TRPM7-mediated anoxic cell death measured after 20 hrs by propidium iodide uptake assay; assay type: cell-based; details: Cerebral cortex neuron
[21] = target: Transient receptor potential cation channel subfamily M member 7 (Mus musculus) (UniProt Q923J1); experiment: Inhibition of Tet-induced Flag-tagged mouse TRPM7 expressed in HEK293 cells assessed as inhibition of channel-mediated cell death in presence of Mg2+ incubated for 24 to 48 hrs by propidium iodide uptake assay; assay type: cell-based; parameters: concentration or dose not given beside the values
[22] = target: Transient receptor potential cation channel subfamily M member 7 (Mus musculus) (UniProt Q923J1); experiment: Inhibition of TRPM7 in mouse primary neuronal cells exposed to oxygen glucose deprivation condition for 1 to 3 hrs assessed as reduction in TRPM7-mediated anoxic cell death dosed before oxygen glucose deprivation condition by propidium iodide uptake assay; details: Primary neuron
[23] = Toxicity in mouse assessed as maximum tolerated dose; assay type: organism-based; details: in vivo
A-375 = experiment: Inhibition of cell proliferation of human A375 cells at 10 uM incubated for 48 to 96 hrs; assay type: functional
[24] = Cytotoxic activity against mouse primary cortical neurons assessed as reduction in cell viability at 1 to 7.5 uM incubated for 48 to 72 hrs by MTT assay; assay type: cell-based; details: cerebral cortex neuron
[25] = Inhibition of cell proliferation of human DMS53 cells at 10 uM incubated for 48 to 96 hrs; assay type: functional; details: DMS-53
[26] = Inhibition of cell proliferation of human […] cells at 10 uM incubated for 48 to 96 hrs; assay type: functional; details: RXF 393
SW13 [27] = experiment: Inhibition of cell proliferation of human SW13 cells at 10 uM incubated for 48 to 96 hrs; assay type: functional
[28] = target: Transient receptor potential cation channel subfamily M member 7 (Mus musculus) (UniProt Q923J1); experiment: Inhibition of TRPM7 in mouse primary neuronal cells exposed to oxygen glucose deprivation condition for 1 to 3 hrs assessed as reduction in TRPM7-mediated anoxic cell death dosed after oxygen glucose deprivation condition by propidium iodide uptake assay; details: Primary neuron
[29] = target: Transient receptor potential cation channel subfamily M member 7 (Mus musculus) (UniProt Q923J1); experiment: Inhibition of Tet-induced Flag-tagged mouse TRPM7 expressed in HEK293 cells assessed as reduction in channel currents at 2 mM using compound applied extracellularly by whole cell patch clamp assay; assay type: cell-based
[30] = target: Transient receptor potential cation channel subfamily M member 7 (Mus musculus) (UniProt Q923J1); experiment: Inhibition of Tet-induced Flag-tagged mouse TRPM7 expressed in HEK293 cells assessed as reduction in channel currents at 2 mM using compound applied intracellularly by whole cell patch clamp assay; assay type: cell-based
MDA-MB-231 [31] = experiment: Inhibition of cell proliferation of human MDA-MB-231 cells at 1.25 to 10 uM incubated for 72 hrs by SRB assay; assay type: functional, cell-based
Y79 [32] = experiment: Reduction in cell viability in human Y79 cells on rat retinal explants at 5 uM; assay type: functional, cell-based
[33] = Inhibition of cell proliferation of mouse NIH/3T3 cells at 1.25 to 10 uM incubated for 72 hrs by propidium iodide staining assay; assay type: cell-based; details: nih3t3, 72 h
WERI [34] = experiment: Inhibition of cell proliferation of human WERI cells at 0.25 uM to 10 uM by MTT assay; assay type: functional, cell-based
B16-F1 = experiment: Inhibition of cell proliferation of mouse B16-F1 cells at 1.25 to 10 uM incubated for 72 hrs by SRB assay; assay type: functional, cell-based
[35] = Inhibition of cell proliferation of human WERI cells at 10 uM incubated for 48 to 96 hrs; assay type: functional
MCF7 = experiment: Inhibition of cell proliferation of human MCF7 cells at 10 uM incubated for 48 to 96 hrs; assay type: functional

Chain of Transient receptor potential cation channel subfamily M member 7 (Mus musculus) (Q923J1 whole entry): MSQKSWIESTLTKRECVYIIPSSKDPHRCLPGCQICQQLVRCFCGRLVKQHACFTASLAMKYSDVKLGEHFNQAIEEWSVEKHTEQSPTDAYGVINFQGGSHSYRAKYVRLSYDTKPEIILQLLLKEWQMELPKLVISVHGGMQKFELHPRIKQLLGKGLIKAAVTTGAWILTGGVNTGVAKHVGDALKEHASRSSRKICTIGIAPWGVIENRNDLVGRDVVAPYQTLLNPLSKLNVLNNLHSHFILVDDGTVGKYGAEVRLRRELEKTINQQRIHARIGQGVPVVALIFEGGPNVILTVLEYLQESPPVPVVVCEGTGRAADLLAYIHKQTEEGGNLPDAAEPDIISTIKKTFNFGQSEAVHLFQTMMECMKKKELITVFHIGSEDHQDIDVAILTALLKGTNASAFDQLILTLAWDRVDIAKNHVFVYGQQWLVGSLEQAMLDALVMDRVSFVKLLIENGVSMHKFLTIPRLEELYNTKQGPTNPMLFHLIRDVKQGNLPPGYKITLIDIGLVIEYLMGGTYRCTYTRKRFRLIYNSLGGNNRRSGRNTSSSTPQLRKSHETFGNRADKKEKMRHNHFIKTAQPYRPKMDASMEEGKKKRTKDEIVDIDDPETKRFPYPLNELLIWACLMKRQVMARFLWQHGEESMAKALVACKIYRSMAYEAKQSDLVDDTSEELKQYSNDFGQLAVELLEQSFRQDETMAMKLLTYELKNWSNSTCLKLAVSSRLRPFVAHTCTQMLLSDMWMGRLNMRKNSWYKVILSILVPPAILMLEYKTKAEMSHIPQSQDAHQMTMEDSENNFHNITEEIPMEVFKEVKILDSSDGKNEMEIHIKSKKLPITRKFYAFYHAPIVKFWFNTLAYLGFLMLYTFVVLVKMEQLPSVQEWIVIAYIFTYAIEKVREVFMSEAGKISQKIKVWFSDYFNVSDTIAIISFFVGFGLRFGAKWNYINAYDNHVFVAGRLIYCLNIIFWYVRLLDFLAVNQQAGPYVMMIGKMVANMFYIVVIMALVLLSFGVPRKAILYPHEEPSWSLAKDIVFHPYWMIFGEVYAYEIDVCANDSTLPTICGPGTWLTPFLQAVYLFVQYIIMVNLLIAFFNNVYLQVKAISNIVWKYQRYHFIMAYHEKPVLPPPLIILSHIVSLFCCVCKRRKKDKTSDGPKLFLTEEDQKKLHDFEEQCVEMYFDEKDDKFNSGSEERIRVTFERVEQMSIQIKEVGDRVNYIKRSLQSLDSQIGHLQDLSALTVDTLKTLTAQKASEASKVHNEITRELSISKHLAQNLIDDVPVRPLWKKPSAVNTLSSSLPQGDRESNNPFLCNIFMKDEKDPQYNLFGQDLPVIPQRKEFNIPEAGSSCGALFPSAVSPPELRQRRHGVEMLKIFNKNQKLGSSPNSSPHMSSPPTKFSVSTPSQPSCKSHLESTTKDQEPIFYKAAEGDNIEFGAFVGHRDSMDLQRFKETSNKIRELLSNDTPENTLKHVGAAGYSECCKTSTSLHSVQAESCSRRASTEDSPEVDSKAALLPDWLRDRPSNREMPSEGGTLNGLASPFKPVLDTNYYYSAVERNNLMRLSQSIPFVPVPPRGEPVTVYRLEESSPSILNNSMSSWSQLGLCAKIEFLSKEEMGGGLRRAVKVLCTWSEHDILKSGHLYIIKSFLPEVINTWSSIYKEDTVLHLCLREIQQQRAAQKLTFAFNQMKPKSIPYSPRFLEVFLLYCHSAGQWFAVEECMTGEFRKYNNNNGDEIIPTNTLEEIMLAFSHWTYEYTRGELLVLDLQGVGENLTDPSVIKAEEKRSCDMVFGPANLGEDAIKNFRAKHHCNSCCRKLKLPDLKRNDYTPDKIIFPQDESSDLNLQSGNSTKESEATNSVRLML
Chain of Transient receptor potential cation channel subfamily M member 7 (Rattus norvegicus) (Q925B3 whole entry): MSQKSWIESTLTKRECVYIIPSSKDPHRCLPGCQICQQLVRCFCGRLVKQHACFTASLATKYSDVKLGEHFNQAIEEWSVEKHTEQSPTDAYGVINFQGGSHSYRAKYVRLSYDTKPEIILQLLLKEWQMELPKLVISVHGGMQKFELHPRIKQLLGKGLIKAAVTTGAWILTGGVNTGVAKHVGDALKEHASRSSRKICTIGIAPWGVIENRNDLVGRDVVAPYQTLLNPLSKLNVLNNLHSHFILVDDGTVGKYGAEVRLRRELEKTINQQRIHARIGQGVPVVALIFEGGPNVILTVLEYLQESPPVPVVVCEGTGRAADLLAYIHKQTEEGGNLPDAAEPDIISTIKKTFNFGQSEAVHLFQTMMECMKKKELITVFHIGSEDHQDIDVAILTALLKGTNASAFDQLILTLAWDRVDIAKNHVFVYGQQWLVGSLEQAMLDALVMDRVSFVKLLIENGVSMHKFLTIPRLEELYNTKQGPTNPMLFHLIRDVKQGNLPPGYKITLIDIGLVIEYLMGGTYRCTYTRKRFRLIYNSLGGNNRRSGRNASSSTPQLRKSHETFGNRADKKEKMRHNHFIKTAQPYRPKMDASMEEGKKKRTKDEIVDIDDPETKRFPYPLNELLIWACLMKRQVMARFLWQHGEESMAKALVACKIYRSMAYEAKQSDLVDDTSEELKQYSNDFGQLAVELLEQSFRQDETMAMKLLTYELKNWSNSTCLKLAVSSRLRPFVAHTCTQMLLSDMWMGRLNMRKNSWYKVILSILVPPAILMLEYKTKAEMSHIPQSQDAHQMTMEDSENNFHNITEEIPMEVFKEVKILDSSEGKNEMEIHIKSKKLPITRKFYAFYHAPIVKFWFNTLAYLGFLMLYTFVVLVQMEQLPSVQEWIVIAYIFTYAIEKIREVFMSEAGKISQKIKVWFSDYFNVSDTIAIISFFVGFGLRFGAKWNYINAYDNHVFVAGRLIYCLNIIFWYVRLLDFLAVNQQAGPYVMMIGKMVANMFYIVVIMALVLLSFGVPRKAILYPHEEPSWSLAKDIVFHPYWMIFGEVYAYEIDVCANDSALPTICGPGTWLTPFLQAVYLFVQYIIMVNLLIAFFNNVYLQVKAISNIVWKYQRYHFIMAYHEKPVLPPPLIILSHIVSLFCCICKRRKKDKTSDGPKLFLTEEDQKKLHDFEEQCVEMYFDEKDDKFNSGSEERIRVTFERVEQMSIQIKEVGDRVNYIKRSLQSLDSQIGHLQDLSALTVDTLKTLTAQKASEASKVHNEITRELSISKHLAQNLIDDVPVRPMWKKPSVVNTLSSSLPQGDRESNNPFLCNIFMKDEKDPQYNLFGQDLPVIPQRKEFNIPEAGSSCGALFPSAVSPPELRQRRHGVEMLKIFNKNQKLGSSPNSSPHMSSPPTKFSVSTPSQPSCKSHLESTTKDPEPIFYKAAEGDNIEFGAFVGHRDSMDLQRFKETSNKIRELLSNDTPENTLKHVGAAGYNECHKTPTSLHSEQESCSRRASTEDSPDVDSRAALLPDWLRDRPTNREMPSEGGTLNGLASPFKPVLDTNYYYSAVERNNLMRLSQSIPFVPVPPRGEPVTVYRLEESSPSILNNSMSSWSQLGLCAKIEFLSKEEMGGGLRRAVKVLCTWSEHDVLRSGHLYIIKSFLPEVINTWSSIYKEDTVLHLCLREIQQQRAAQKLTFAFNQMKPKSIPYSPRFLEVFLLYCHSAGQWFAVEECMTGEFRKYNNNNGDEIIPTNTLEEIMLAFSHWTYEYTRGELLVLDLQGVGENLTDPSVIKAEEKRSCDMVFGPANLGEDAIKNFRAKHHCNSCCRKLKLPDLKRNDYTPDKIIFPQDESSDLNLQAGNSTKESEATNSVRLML

With `COc1cc2c(cc1OC)C(c1sc3ccccc3c1Cl)=NCC2` the inhibition (Y79 [1]) was “Active”, the inhibition [2] was “Active” and the inhibition at 10 µM [3] was over 20%. The inhibition [4] was “Active”, the inhibition at 10 µM (U2OS) was over 20% and the inhibition at 10 µM [5] was over 20%. The inhibition at 10 µM (Y79 [6]) was over 20%, the inhibition (B16-F10 [7]) was “Active” and the inhibition at 10 µM (MDA-MB-231 [8]) was over 20%. The inhibition (Y79 [9]) was “Active”, the TGI (RXF 393) was “Active” and the inhibition at 10 µM [10] was over 20%. For the same compound, the inhibition [11] was “Active”, the inhibition at 10 µM [12] was over 20% and the inhibition (HeLa [13]) was “Active”. For the same compound, the inhibition (WERI [14]) was “Active”, the inhibition at 10 µM (HeLa [15]) was over 20% and the inhibition (SW13 [16]) was “Active”. The TGI (B16-F10 [17]) was “Active”, the inhibition (SW13 [18]) was “Active” and the inhibition [19] was “Active”. For the same compound, the inhibition at 10 µM (NCI-H292) was over 20%, the inhibition [20] was “Active” and the inhibition [21] was “Active”. For the same compound, the inhibition [22] was “Active”, the MTD [23] was under 20 mg/kg and the inhibition at 10 µM (A-375) was over 20%. The Activity [24] was “Non-toxic”, the inhibition at 10 µM [25] was over 20% and the inhibition at 10 µM [26] was over 20%. For the same compound, the inhibition at 10 µM (SW13 [27]) was over 20%, the inhibition [28] was “Active” and the inhibition [29] was “Active”. For the same compound, the inhibition [30] was “inactive”, the inhibition (MDA-MB-231 [31]) was “Active” and the inhibition (Y79 [32]) was “Active”. The Activity [33] was “Non-toxic”, the inhibition (WERI [34]) was “Active” and the inhibition (B16-F1) was “Active”. For the same compound, the inhibition at 10 µM [35] was over 20% and the inhibition at 10 µM (MCF7) was over 20%.
